# Values joined by “and” are separate entries in the source; they are usually repeats but may differ in a detail not shown here. Equal entries are not always repeated.
# Legend:
# LEFCH = experiment: Example I: postemergence foliar-applied weed control, greenhouse; assay type: in vivo, Leptochloa chinensis (L.) Nees (Chinese sprangletop); conditions: for Visual Weed Control (%) - 21 DAA LEFCH Obs / Visual Weed Control (%) - 22 DAA LEFCH Obs / Visual Weed Control (%) - 19 DAA LEFCH Obs: foliar
# How it was run: (§1)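 Plants grown in loam/sandy loam–calcareous grit soil (80:20) in greenhouse, 14 hr photoperiod, about 29° C. day/26° C. night, treated postemergence at first to fourth true leaf stage. Foliar spray at 187 L/ha with 1.25% (v/v) crop oil concentrate; Compound A dosed on acid equivalent basis, partners on active ingredient basis.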
# BRAPP = experiment: Example I: postemergence foliar-applied weed control, direct seeded rice weeds, greenhouse; assay type: in vivo; conditions: for Visual Weed Control (%) - 22 DAA BRAPP Obs: foliar; for Visual Weed Control Obs: 20 DAA
# How it was run: as §1
smiles,measurement,setting,value
"COc1c(Cl)ccc(-c2nc(C(=O)OCc3ccccc3)c(Cl)c(N)c2F)c1F [Compound A Benzyl Ester, benzyl ester of 4-amino-3-chloro-5-fluoro-6-(4-chloro-2-fluoro-3-methoxy-phenyl)pyridine-2-carboxylic acid]",Visual Weed Control (%) - 21 DAA LEFCH Obs,LEFCH; 5.3 gae/ha,0%
same,Visual Weed Control (%) - 21 DAA LEFCH Obs,LEFCH; 8 gae/ha,20%
same,Visual Weed Control (%) - 22 DAA LEFCH Obs,LEFCH; 8 gae/ha,35%
same,Visual Weed Control (%) - 21 DAA LEFCH Obs,LEFCH; 10.6 gae/ha,20%
same,Visual Weed Control (%) - 19 DAA LEFCH Obs,LEFCH; 16 gae/ha,45%
same,Visual Weed Control (%) - 22 DAA LEFCH Obs,LEFCH; 16 gae/ha,40%
same,Visual Weed Control Obs,"LEFCH; 20 DAA, 17.5 gae/ha",50% and 25%
same,Visual Weed Control (%) - 21 DAA LEFCH Obs,LEFCH; 21.2 gae/ha,35%
same,Visual Weed Control (%) - 19 DAA LEFCH Obs,LEFCH; 32 gae/ha,50%
same,Visual Weed Control (%) - 22 DAA BRAPP Obs,BRAPP; 8 gae/ha,60% and 65%
same,Visual Weed Control (%) - 22 DAA BRAPP Obs,BRAPP; 16 gae/ha,60% and 80%
same,Visual Weed Control Obs,BRAPP; 4.38 gae/ha,60%
same,Visual Weed Control Obs,BRAPP; 8.75 gae/ha,65%
same,Visual Weed Control (%) - 22 DAA BRAPP Obs,BRAPP; 32 gae/ha,90% and 85%
"COc1c(Cl)ccc(-c2nc(C(=O)O)c(Cl)c(N)c2F)c1F [Compound A Acid, 4-amino-3-chloro-6-(4-chloro-2-fluoro-3-methoxyphenyl)-5-fluoropyridine-2-carboxylic acid]",Visual Weed Control (%) - 22 DAA LEFCH Obs,LEFCH; 10.6 gae/ha,10%
same,Visual Weed Control Obs,"LEFCH; 20 DAA, 17.5 gae/ha",30% and 50%
same,Visual Weed Control Obs,"LEFCH; 21 DAA, 17.5 gae/ha",20%
same,Visual Weed Control Obs,"LEFCH; 21 DAA, 35 gae/ha",45%
same,Visual Weed Control (%) - 22 DAA LEFCH Obs,LEFCH; 21.2 gae/ha,10%
same,Visual Weed Control Obs,BRAPP; 4.38 gae/ha,50% and 60% and 75%
same,Visual Weed Control Obs,BRAPP; 8.75 gae/ha,70% and 80%
"CCS(=O)(=O)Oc1ccc2c(c1)C(C)(C)CO2 [Benfuresate, 2,3-dihydro-3,3-dimethyl-5-benzofuranyl ethanesulfonate]",Visual Weed Control (%) - 21 DAA LEFCH Obs,LEFCH; 75 gai/ha,0%
same,Visual Weed Control (%) - 21 DAA LEFCH Obs,LEFCH; 150 gai/ha,10%
same,Visual Weed Control (%) - 21 DAA LEFCH Obs,LEFCH; 300 gai/ha,10%
same,Visual Weed Control (%) - 22 DAA LEFCH Obs,LEFCH; 300 gai/ha,10%
"CCCOCCN(C(=O)CCl)c1c(CC)cccc1CC [Pretilachlor, 2-chloro-N-(2,6-diethylphenyl)-N-(2-propoxyethyl)acetamide]",Visual Weed Control Obs,BRAPP; 37.5 gai/ha,0%
same,Visual Weed Control Obs,BRAPP; 75 gai/ha,0%
same,Visual Weed Control Obs,BRAPP; 150 gai/ha,0%
"CCN(CC)C(=O)n1cnc(S(=O)(=O)c2c(C)cc(C)cc2C)n1 [Cafenstrole, N,N-diethyl-3-[(2,4,6-trimethylphenyl)sulfonyl]-1H-1,2,4-triazole-1-carboxamide]",Visual Weed Control Obs,"LEFCH; 20 DAA, 26.25 gai/ha Himeadow WP",0%
same,Visual Weed Control Obs,"LEFCH; 20 DAA, 52.5 gai/ha Himeadow WP",0%
same,Visual Weed Control Obs,"LEFCH; 20 DAA, 105 gai/ha Himeadow WP",0%
same,Visual Weed Control Obs,"LEFCH; 21 DAA, 210 gai/ha Lapost Flowable",23%
same,Visual Weed Control Obs,BRAPP; 26.25 gai/ha Himeadow WP,0%
same,Visual Weed Control Obs,BRAPP; 52.5 gai/ha Himeadow WP,0%
same,Visual Weed Control Obs,BRAPP; 105 gai/ha Himeadow WP,0%

# From patent US20130310256A1, “HERBICIDAL COMPOSITIONS COMPRISING 4-AMINO-3-CHLORO-5-FLUORO-6-(4-CHLORO-2-FLUORO-3-METHOXYPHENYL) PYRIDINE-2-CARBOXYLIC ACID OR A DERIVATIVE THEREOF AND VLCFA AND LIPID SYNTHESIS INHIBITING HERBICIDES” (DOW AGROSCIENCES LLC, priority 2008, published 2013)
